Experimental data published in patent EP0797567B1, “NOVEL AMINO ACID DERIVATIVES WITH IMPROVED MULTI-DRUG RESISTANCE ACTIVITY” (Vertex Pharmaceuticals Incorporated, priority 1994, dated 1996).

How the values were obtained:
[1] = test system: HL60/ADR cells; assay: Inhibition of MRP-mediated MDR: doxorubicin with or without compound, XTT viability; type: cell-based; conditions: Homo sapiens, 72 h, doxorubicin alone, no MDR inhibitor, control run of the compound in the same table row, 3 days, read-out: IC50 Dox alone
Experimental: We plated HL60/ADR cells in 96 well microtiter plates (4 x 10^4 cells/well). […] After culturing the cells for 3 days, their viability was quantitated using the XTT dye method to assess mitochondrial function. […] IC50 values are expressed in nM. In all assays the intrinsic antiproliferative or cytotoxic activity of the MDR inhibitors was also determined for HL60/ADR cells.

[2] = test system: L1210VMDRC.06; assay: MDR sensitization assay: doxorubicin antiproliferative activity with or without MDR inhibitor (MTT/XTT viability); type: cell-based, mouse; conditions: IC50 Dox / IC50 Dox + Inhibitor
Experimental: To assay the ability of the compounds according to this invention to increase the antiproliferative activity of a drug, cell lines which are known to be resistant to a particular drug may be used. These cell lines include, but are not limited to, the L1210, P388D, CHO and MCF7 cell lines. Alternatively, resistant cell lines may be developed. The cell line is exposed to the drug to which it is resistant, or to the test compound; cell viability is then measured and compared to the viability of cells which are exposed to the drug in the presence of the test compound. […]
Multi-drug resistance assays were conducted by plating cells (2 x 10^3, 1 x 10^4, or 5 x 10^4 cells/well) in 96 well microtiter plates and exposing them to a concentration range of doxorubicin ([…]) as described in Ford et al., Cancer Res., Vol. 50, 1748-1756. […] After culture for 3 days, the viability of cells was quantitated using MTT (Mossman) or XTT dyes to assess mitochondrial function. […]
Results were determined by comparison of the IC50 for doxorubicin alone to the IC50 for doxorubicin+ MDR inhibitor. An MDR ratio was calculated (IC50 Dox/ IC50 Dox + Inhibitor) and the integer value used for comparison of compound potencies.

Row | Compound | IC50 [1] [µM] | MDR Ratio 0.5 µM ([2]; 0.5 µM compound) | MDR Ratio 1.0 µM ([2]; 1.0 µM compound)
1 | COc1cccc2c1C(=O)c1c(O)c3c(c(O)c1C2=O)C[C@@](O)(C(=O)CO)C[C@@H]3O[C@H]1C[C@H](N)[C@H](O)[C@H](C)O1 [Dox, doxorubicin] | 5 | – | –
2 | (S)-N-Benzyl-2-(methyl-(2-oxo-2-(3,4,5-trimethoxyphenyl)acetyl)amino)-3-phenyl-N-(3-(pyridin-4-yl)-1-(2-(pyridin-4-yl)-propyl)butyl)propionamide [Compound 12] | – | 3.2 | >9.2
